According to PubChem BioAssay (NCI):
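Following 48 hours of exposure in 96-well plates, responses at five concentrations were used to interpolate endpoints linearly. At the TGI there is no net growth.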 Where a SMILES comes first, the peptide text is derived from it. Bridges are numbered along the chain shown (N, C = ends). [ ]: non-standard residue; d: D form. The star is where a group is joined. Cbz = O=C(OCc1ccccc1)*; Aib = CC(C)(N)C(=O)O; OBn = c1ccc(CO*)cc1; βAla = NCCC(=O)O

Tested on: T-47D breast
Experiment: DTP human tumour cell line panel, 48 h

SMILES	TGI
CC1(C)NC(=O)C(NC(=O)C(CC(=O)OCc2ccccc2)NC(=O)OCc2ccccc2)CCCCNC(=O)CCNC1=O (stereo not drawn) (Cbz-D(OBn)K[Aib][βAla]; lactam 2-C; configuration not given here)	> 100 µM
c1ccc2c(c1)nc1n2CNCC1	> 100 µM

Tested on: CCRF-CEM leukemia
Experiment: DTP human tumour cell line panel, 48 h

SMILES	TGI
CC(=O)OC[C@H]1[C@@H]2C(CC[C@]13CO3)OC(=O)CC(C)[C@]2(C)CCc1ccoc1 (stereo partly drawn)	> 100 µM
CCOC(=O)C(=C(SC)SC)c1nn2c(=O)cc(C)nc2s1	68.6 µM
CCCN=C(NC(=O)c1ccc(Cl)cc1)SC	> 100 µM
COc1ccc(-c2c(C#N)c(NC(=S)NC(=O)c3ccccc3)nc3c2CCCC3)cc1OC	> 100 µM
Cc1c(Cc2ccccc2)n(COCCCO)c(=O)[nH]c1=O	> 100 µM

Tested on: SNB-75 CNS
Experiment: DTP human tumour cell line panel, 48 h

SMILES	TGI
CCOC(=O)C(=C(SC)SC)c1nn2c(=O)cc(C)nc2s1	89.6 µM
CCCN=C(NC(=O)c1ccc(Cl)cc1)SC	97.2 µM
COc1ccc(-c2c(C#N)c(NC(=S)NC(=O)c3ccccc3)nc3c2CCCC3)cc1OC	> 100 µM
Cc1c(Cc2ccccc2)n(COCCCO)c(=O)[nH]c1=O	> 100 µM
CC1(C)NC(=O)C(NC(=O)C(CC(=O)OCc2ccccc2)NC(=O)OCc2ccccc2)CCCCNC(=O)CCNC1=O (stereo not drawn) (Cbz-D(OBn)K[Aib][βAla]; lactam 2-C; configuration not given here)	> 100 µM
c1ccc2c(c1)nc1n2CNCC1	> 100 µM

Tested on: UACC-257 melanoma
Experiment: DTP human tumour cell line panel, 48 h

SMILES	TGI
CC(=O)OC[C@H]1[C@@H]2C(CC[C@]13CO3)OC(=O)CC(C)[C@]2(C)CCc1ccoc1 (stereo partly drawn)	> 100 µM
CCOC(=O)C(=C(SC)SC)c1nn2c(=O)cc(C)nc2s1	45.2 µM
CCCN=C(NC(=O)c1ccc(Cl)cc1)SC	> 100 µM
COc1ccc(-c2c(C#N)c(NC(=S)NC(=O)c3ccccc3)nc3c2CCCC3)cc1OC	> 100 µM
Cc1c(Cc2ccccc2)n(COCCCO)c(=O)[nH]c1=O	> 100 µM
c1ccc2c(c1)nc1n2CNCC1	> 100 µM

Tested on: MCF7 breast
Experiment: DTP human tumour cell line panel, 48 h

SMILES	TGI
CC(=O)OC[C@H]1[C@@H]2C(CC[C@]13CO3)OC(=O)CC(C)[C@]2(C)CCc1ccoc1 (stereo partly drawn)	> 100 µM
CCOC(=O)C(=C(SC)SC)c1nn2c(=O)cc(C)nc2s1	35.5 µM
CCCN=C(NC(=O)c1ccc(Cl)cc1)SC	> 100 µM
COc1ccc(-c2c(C#N)c(NC(=S)NC(=O)c3ccccc3)nc3c2CCCC3)cc1OC	> 100 µM
Cc1c(Cc2ccccc2)n(COCCCO)c(=O)[nH]c1=O	> 100 µM
CC1(C)NC(=O)C(NC(=O)C(CC(=O)OCc2ccccc2)NC(=O)OCc2ccccc2)CCCCNC(=O)CCNC1=O (stereo not drawn) (Cbz-D(OBn)K[Aib][βAla]; lactam 2-C; configuration not given here)	> 100 µM
c1ccc2c(c1)nc1n2CNCC1	> 100 µM

Tested on: K-562 leukemia
Experiment: DTP human tumour cell line panel, 48 h

SMILES	TGI
CC(=O)OC[C@H]1[C@@H]2C(CC[C@]13CO3)OC(=O)CC(C)[C@]2(C)CCc1ccoc1 (stereo partly drawn)	> 100 µM
CCOC(=O)C(=C(SC)SC)c1nn2c(=O)cc(C)nc2s1	44.1 µM
CCCN=C(NC(=O)c1ccc(Cl)cc1)SC	> 100 µM
COc1ccc(-c2c(C#N)c(NC(=S)NC(=O)c3ccccc3)nc3c2CCCC3)cc1OC	> 100 µM
Cc1c(Cc2ccccc2)n(COCCCO)c(=O)[nH]c1=O	> 100 µM
CC1(C)NC(=O)C(NC(=O)C(CC(=O)OCc2ccccc2)NC(=O)OCc2ccccc2)CCCCNC(=O)CCNC1=O (stereo not drawn) (Cbz-D(OBn)K[Aib][βAla]; lactam 2-C; configuration not given here)	> 100 µM

Tested on: OVCAR-4 ovarian
Experiment: DTP human tumour cell line panel, 48 h

SMILES	TGI
CC(=O)OC[C@H]1[C@@H]2C(CC[C@]13CO3)OC(=O)CC(C)[C@]2(C)CCc1ccoc1 (stereo partly drawn)	> 100 µM
CCOC(=O)C(=C(SC)SC)c1nn2c(=O)cc(C)nc2s1	> 100 µM
CCCN=C(NC(=O)c1ccc(Cl)cc1)SC	> 100 µM
COc1ccc(-c2c(C#N)c(NC(=S)NC(=O)c3ccccc3)nc3c2CCCC3)cc1OC	> 100 µM
Cc1c(Cc2ccccc2)n(COCCCO)c(=O)[nH]c1=O	> 100 µM
CC1(C)NC(=O)C(NC(=O)C(CC(=O)OCc2ccccc2)NC(=O)OCc2ccccc2)CCCCNC(=O)CCNC1=O (stereo not drawn) (Cbz-D(OBn)K[Aib][βAla]; lactam 2-C; configuration not given here)	> 100 µM
c1ccc2c(c1)nc1n2CNCC1	> 100 µM

Tested on: IGROV1 ovarian
Experiment: DTP human tumour cell line panel, 48 h

SMILES	TGI
CC(=O)OC[C@H]1[C@@H]2C(CC[C@]13CO3)OC(=O)CC(C)[C@]2(C)CCc1ccoc1 (stereo partly drawn)	> 100 µM
CCOC(=O)C(=C(SC)SC)c1nn2c(=O)cc(C)nc2s1	47.5 µM
CCCN=C(NC(=O)c1ccc(Cl)cc1)SC	> 100 µM
COc1ccc(-c2c(C#N)c(NC(=S)NC(=O)c3ccccc3)nc3c2CCCC3)cc1OC	> 100 µM
Cc1c(Cc2ccccc2)n(COCCCO)c(=O)[nH]c1=O	> 100 µM
CC1(C)NC(=O)C(NC(=O)C(CC(=O)OCc2ccccc2)NC(=O)OCc2ccccc2)CCCCNC(=O)CCNC1=O (stereo not drawn) (Cbz-D(OBn)K[Aib][βAla]; lactam 2-C; configuration not given here)	> 100 µM
c1ccc2c(c1)nc1n2CNCC1	> 100 µM

Tested on: NCI/ADR-RES ovarian
Experiment: DTP human tumour cell line panel, 48 h

SMILES	TGI
CC(=O)OC[C@H]1[C@@H]2C(CC[C@]13CO3)OC(=O)CC(C)[C@]2(C)CCc1ccoc1 (stereo partly drawn)	> 100 µM
CCOC(=O)C(=C(SC)SC)c1nn2c(=O)cc(C)nc2s1	90.4 µM
CCCN=C(NC(=O)c1ccc(Cl)cc1)SC	> 100 µM
COc1ccc(-c2c(C#N)c(NC(=S)NC(=O)c3ccccc3)nc3c2CCCC3)cc1OC	> 100 µM
Cc1c(Cc2ccccc2)n(COCCCO)c(=O)[nH]c1=O	> 100 µM
CC1(C)NC(=O)C(NC(=O)C(CC(=O)OCc2ccccc2)NC(=O)OCc2ccccc2)CCCCNC(=O)CCNC1=O (stereo not drawn) (Cbz-D(OBn)K[Aib][βAla]; lactam 2-C; configuration not given here)	> 100 µM
c1ccc2c(c1)nc1n2CNCC1	> 100 µM

Tested on: PC-3 prostate
Experiment: DTP human tumour cell line panel, 48 h

SMILES	TGI
CC(=O)OC[C@H]1[C@@H]2C(CC[C@]13CO3)OC(=O)CC(C)[C@]2(C)CCc1ccoc1 (stereo partly drawn)	> 100 µM
CCOC(=O)C(=C(SC)SC)c1nn2c(=O)cc(C)nc2s1	56.6 µM
CCCN=C(NC(=O)c1ccc(Cl)cc1)SC	> 100 µM
COc1ccc(-c2c(C#N)c(NC(=S)NC(=O)c3ccccc3)nc3c2CCCC3)cc1OC	> 100 µM
Cc1c(Cc2ccccc2)n(COCCCO)c(=O)[nH]c1=O	> 100 µM
CC1(C)NC(=O)C(NC(=O)C(CC(=O)OCc2ccccc2)NC(=O)OCc2ccccc2)CCCCNC(=O)CCNC1=O (stereo not drawn) (Cbz-D(OBn)K[Aib][βAla]; lactam 2-C; configuration not given here)	> 100 µM
c1ccc2c(c1)nc1n2CNCC1	> 100 µM

Tested on: NCI-H522 lung
Experiment: DTP human tumour cell line panel, 48 h

SMILES	TGI
CC(=O)OC[C@H]1[C@@H]2C(CC[C@]13CO3)OC(=O)CC(C)[C@]2(C)CCc1ccoc1 (stereo partly drawn)	> 100 µM
CCOC(=O)C(=C(SC)SC)c1nn2c(=O)cc(C)nc2s1	41.7 µM
CCCN=C(NC(=O)c1ccc(Cl)cc1)SC	> 100 µM
Cc1c(Cc2ccccc2)n(COCCCO)c(=O)[nH]c1=O	> 100 µM
CC1(C)NC(=O)C(NC(=O)C(CC(=O)OCc2ccccc2)NC(=O)OCc2ccccc2)CCCCNC(=O)CCNC1=O (stereo not drawn) (Cbz-D(OBn)K[Aib][βAla]; lactam 2-C; configuration not given here)	> 100 µM
c1ccc2c(c1)nc1n2CNCC1	> 100 µM

Tested on: NCI-H226 lung
Experiment: DTP human tumour cell line panel, 48 h

SMILES	TGI
CC(=O)OC[C@H]1[C@@H]2C(CC[C@]13CO3)OC(=O)CC(C)[C@]2(C)CCc1ccoc1 (stereo partly drawn)	> 100 µM
CCOC(=O)C(=C(SC)SC)c1nn2c(=O)cc(C)nc2s1	44.6 µM
CCCN=C(NC(=O)c1ccc(Cl)cc1)SC	> 100 µM
Cc1c(Cc2ccccc2)n(COCCCO)c(=O)[nH]c1=O	> 100 µM
CC1(C)NC(=O)C(NC(=O)C(CC(=O)OCc2ccccc2)NC(=O)OCc2ccccc2)CCCCNC(=O)CCNC1=O (stereo not drawn) (Cbz-D(OBn)K[Aib][βAla]; lactam 2-C; configuration not given here)	> 100 µM
c1ccc2c(c1)nc1n2CNCC1	> 100 µM

Tested on: HOP-92 NSCLC
Experiment: DTP human tumour cell line panel, 48 h

SMILES	TGI
CC(=O)OC[C@H]1[C@@H]2C(CC[C@]13CO3)OC(=O)CC(C)[C@]2(C)CCc1ccoc1 (stereo partly drawn)	> 100 µM
CCOC(=O)C(=C(SC)SC)c1nn2c(=O)cc(C)nc2s1	34.4 µM
Cc1c(Cc2ccccc2)n(COCCCO)c(=O)[nH]c1=O	> 100 µM
CC1(C)NC(=O)C(NC(=O)C(CC(=O)OCc2ccccc2)NC(=O)OCc2ccccc2)CCCCNC(=O)CCNC1=O (stereo not drawn) (Cbz-D(OBn)K[Aib][βAla]; lactam 2-C; configuration not given here)	> 100 µM
c1ccc2c(c1)nc1n2CNCC1	> 100 µM

Tested on: SK-OV-3 ovarian
Experiment: DTP human tumour cell line panel, 48 h

SMILES	TGI
CC(=O)OC[C@H]1[C@@H]2C(CC[C@]13CO3)OC(=O)CC(C)[C@]2(C)CCc1ccoc1 (stereo partly drawn)	> 100 µM
CCOC(=O)C(=C(SC)SC)c1nn2c(=O)cc(C)nc2s1	> 100 µM
CCCN=C(NC(=O)c1ccc(Cl)cc1)SC	> 100 µM
COc1ccc(-c2c(C#N)c(NC(=S)NC(=O)c3ccccc3)nc3c2CCCC3)cc1OC	> 100 µM
Cc1c(Cc2ccccc2)n(COCCCO)c(=O)[nH]c1=O	> 100 µM
CC1(C)NC(=O)C(NC(=O)C(CC(=O)OCc2ccccc2)NC(=O)OCc2ccccc2)CCCCNC(=O)CCNC1=O (stereo not drawn) (Cbz-D(OBn)K[Aib][βAla]; lactam 2-C; configuration not given here)	> 100 µM
c1ccc2c(c1)nc1n2CNCC1	> 100 µM

Tested on: NCI-H460 lung
Experiment: DTP human tumour cell line panel, 48 h

SMILES	TGI
CC(=O)OC[C@H]1[C@@H]2C(CC[C@]13CO3)OC(=O)CC(C)[C@]2(C)CCc1ccoc1 (stereo partly drawn)	> 100 µM
CCOC(=O)C(=C(SC)SC)c1nn2c(=O)cc(C)nc2s1	60.7 µM
CCCN=C(NC(=O)c1ccc(Cl)cc1)SC	> 100 µM
COc1ccc(-c2c(C#N)c(NC(=S)NC(=O)c3ccccc3)nc3c2CCCC3)cc1OC	> 100 µM
Cc1c(Cc2ccccc2)n(COCCCO)c(=O)[nH]c1=O	> 100 µM
CC1(C)NC(=O)C(NC(=O)C(CC(=O)OCc2ccccc2)NC(=O)OCc2ccccc2)CCCCNC(=O)CCNC1=O (stereo not drawn) (Cbz-D(OBn)K[Aib][βAla]; lactam 2-C; configuration not given here)	> 100 µM
c1ccc2c(c1)nc1n2CNCC1	> 100 µM

Tested on: ACHN renal
Experiment: DTP human tumour cell line panel, 48 h

SMILES	TGI
CC(=O)OC[C@H]1[C@@H]2C(CC[C@]13CO3)OC(=O)CC(C)[C@]2(C)CCc1ccoc1 (stereo partly drawn)	> 100 µM
CCOC(=O)C(=C(SC)SC)c1nn2c(=O)cc(C)nc2s1	33.7 µM
CCCN=C(NC(=O)c1ccc(Cl)cc1)SC	> 100 µM
COc1ccc(-c2c(C#N)c(NC(=S)NC(=O)c3ccccc3)nc3c2CCCC3)cc1OC	> 100 µM
Cc1c(Cc2ccccc2)n(COCCCO)c(=O)[nH]c1=O	> 100 µM
CC1(C)NC(=O)C(NC(=O)C(CC(=O)OCc2ccccc2)NC(=O)OCc2ccccc2)CCCCNC(=O)CCNC1=O (stereo not drawn) (Cbz-D(OBn)K[Aib][βAla]; lactam 2-C; configuration not given here)	> 100 µM
c1ccc2c(c1)nc1n2CNCC1	> 100 µM
